Each compound was assayed on HCV genotype 1b replicon (assay: HCV replicon assay (HCV 1b_Huh-Luc/Neo-ET cell line, luciferase readout)). Conditions: Hepatitis C virus; bicistronic genotype 1b replicon in Huh 7 cells, 72 h incubation, luciferase enzyme activity; read-out: Inhibition of HCV genotype 1b.
Type: cell-based
Procedure: Biological activity of the compounds of the invention was determined using an HCV replicon assay. The HCV 1b_Huh-Luc/Neo-ET cell line persistently expressing a bicistronic genotype 1b replicon in Huh 7 cells was obtained from ReBLikon GMBH. This cell line was used to test compound inhibition using luciferase enzyme activity readout as a measurement of compound inhibition of replicon levels.
On Day 1 (the day after plating cells), each compound is added in triplicate to the cells. Plates are incubated for 72 h prior to determining luciferase levels. Enzyme activity was measured using a Bright-Glo Kit (cat. number E2620) manufactured by Promega Corporation. The following equation was used to generate a percent control value for each compound.
% Control=(Average Compound Value/Average Control)*100
The EC50 value was determined using GraphPad Prism and the following equation:
Y=Bottom+(Top−Bottom)/(1+10̂((LogIC50−X)*HillSlope))
EC50 values of compounds are determined several times in the replicon assay. […]

Row | SMILES | EC50 [nM]
1 | COC(=O)N[C@@H](C(=O)N[C@@H](C)c1ncc(-c2ccc(-c3ccc(C(=O)NC[C@@H]4CCCN4C(=O)[C@H](NC(=O)OC)c4ccccc4)nc3)cc2)[nH]1)c1ccccc1 [Compound 93] | < 1
2 | C[C@@H](NC(=O)OC(C)(C)C)C(=O)N1CCC[C@H]1c1ncc(-c2ccc(Oc3ccc(-c4cnc([C@@H]5CCCN5C(=O)[C@@H](C)NC(=O)OC(C)(C)C)[nH]4)cc3)cc2)[nH]1 [Compound 47] | 1 to 9.9
3 | COC(=O)N[C@H](C(=O)N1CCC[C@H]1C(=O)Nc1ccc(-c2ccc(-c3cnc([C@@H]4CCCN4C(=O)[C@@H](NC(=O)OC)C4CCOCC4)[nH]3)cc2)cc1)C1CCOCC1 [Compound 110] | 1 to 9.9
4 | CC(C)[C@@H](NC(=O)C1CC1)C(=O)N1CCOC[C@H]1C(=O)Nc1ccc(-c2ccc(-c3cnc([C@@H]4COCCN4C(=O)[C@H](NC(=O)C4CC4)C(C)C)[nH]3)cc2)cc1 [Compound 25] | 1 to 9.9
5 | C#CC[C@H](NC(=O)OC)C(=O)N1CCC[C@H]1C(=O)Nc1ccc(-c2ccc(-c3cnc([C@@H]4CCCN4C(=O)[C@H](CC#C)NC(=O)OC)[nH]3)cc2)cc1 [Compound 76] | 1 to 9.9
6 | O=C(N[C@@H](C(=O)N1CCC[C@H]1COc1ccc(-c2ccc(-c3cnc([C@@H]4CCCN4C(=O)[C@H](NC(=O)C4CC4)c4ccccc4)[nH]3)cc2)cc1)c1ccccc1)C1CC1 [Compound 31] | < 1
7 | O=C(NCc1ccc(-c2ccc(-c3cnc([C@@H]4CCCN4C(=O)[C@H](NC(=O)N4CCOCC4)c4ccccc4)[nH]3)cc2)cc1)[C@@H]1CCCN1C(=O)[C@H](NC(=O)N1CCOCC1)c1ccccc1 [Compound 44] | 1 to 9.9
8 | O=C(N[C@@H](C(=O)N1CCC[C@H]1c1ncc(-c2ccc(Sc3ccc(-c4cnc([C@@H]5CCCN5C(=O)[C@H](NC(=O)N5CCOCC5)c5ccccc5)[nH]4)cc3)cc2)[nH]1)c1ccccc1)N1CCOCC1 [Compound 51] | < 1
9 | COC(=O)N[C@H](C(=O)N[C@@H](C)c1ncc(-c2ccc(-c3ccc(C(=O)NC[C@@H]4CCCN4C(=O)[C@@H](NC(=O)OC)C(C)C)cc3)cc2)[nH]1)C(C)C [Compound 88] | < 1
10 | C[C@H](NC(=O)[C@@H]1CCCN1C(=O)[C@H](NC(=O)OC(C)(C)C)c1ccccc1)c1ccc(-c2ccc(-c3cnc([C@@H]4CCCN4C(=O)[C@H](NC(=O)OC(C)(C)C)c4ccccc4)[nH]3)cc2)cc1 [Compound 34] | < 1
11 | COC(=O)N[C@@H](C)C(=O)N1CCC[C@H]1C(=O)N[C@@H](C)c1ccc(-c2ccc(-c3cnc([C@@H]4CCCN4C(=O)[C@H](C)NC(=O)OC)[nH]3)cc2)cc1 [Compound 94] | 1 to 9.9
12 | COC(=O)N[C@H](C(=O)N1CCC[C@H]1C(=O)NCc1ccc(-c2ccc(-c3cnc([C@@H]4CCCN4C(=O)[C@@H](NC(=O)OC)C(C)C)[nH]3)cc2)cc1)C(C)C [Compound 105] | 10 to 999
13 | C[C@H](NC(=O)[C@@H]1CCCN1C(=O)[C@H](NC(=O)C1CC1)c1ccccc1)c1ccc(-c2ccc(-c3cnc([C@@H]4CCCN4C(=O)[C@H](NC(=O)C4CC4)c4ccccc4)[nH]3)cc2)cc1 [Compound 37] | < 1
14 | C[C@@H](NC(=O)[C@@H]1CCCN1C(=O)[C@H](NC(=O)C1CC1)c1ccccc1)c1ccc(-c2ccc(-c3cnc([C@@H]4CCCN4C(=O)[C@H](NC(=O)C4CC4)c4ccccc4)[nH]3)cc2)cc1 [Compound 40] | < 1
15 | C#CC[C@H](NC(=O)OC)C(=O)N1CCC[C@H]1C(=O)NCc1ccc(-c2ccc(-c3cnc([C@@H]4CCCN4C(=O)[C@H](CC#C)NC(=O)OC)[nH]3)cc2)cc1 [Compound 81] | 10 to 999
16 | C[C@@H](NC(=O)C1CC1)C(=O)N1CCC[C@H]1c1ncc(-c2ccc(Oc3ccc(-c4cnc([C@@H]5CCCN5C(=O)[C@@H](C)NC(=O)C5CC5)[nH]4)cc3)cc2)[nH]1 [Compound 58] | 10 to 999
17 | C[C@@H](NC(=O)[C@@H]1CCCN1C(=O)[C@H](NC(=O)N1CCOCC1)c1ccccc1)c1ccc(-c2ccc(-c3cnc([C@@H]4CCCN4C(=O)[C@H](NC(=O)N4CCOCC4)c4ccccc4)[nH]3)cc2)cc1 [Compound 41] | 1 to 9.9
18 | C=CC[C@H](NC(=O)OC)C(=O)N1CCC[C@H]1C(=O)Nc1ccc(-c2ccc(-c3cnc([C@@H]4CCCN4C(=O)[C@H](CC=C)NC(=O)OC)[nH]3)cc2)cc1 [Compound 75] | 1 to 9.9
19 | COC(=O)N[C@H](C(=O)N1CCC[C@H]1c1ncc(-c2ccc(Sc3cccc(-c4cnc([C@@H]5CCCN5C(=O)[C@@H](NC(=O)OC)C(C)C)[nH]4)c3)cc2)[nH]1)C(C)C [Compound 69] | < 1
20 | COC(=O)N[C@H](C(=O)N1CCC[C@H]1c1nc2c([nH]1)-c1ccc(-c3ccc(C(=O)NC[C@@H]4CCCN4C(=O)[C@H](NC(=O)OC)c4ccccc4)cc3)cc1CC2)C(C)C [Compound 85] | < 1
21 | CC(C)(C)OC(=O)N1CCC[C@H]1C(=O)Nc1ccc(-c2ccc(-c3cnc([C@@H]4COCCN4C(=O)OC(C)(C)C)[nH]3)cc2)cc1 [Compound 5] | > 1000

Row | SMILES | EC50 [nM]
22 | COC(=O)N[C@@H](C(=O)N1CCC[C@H]1c1ncc(-c2ccc(-c3ccc(C(=O)NC[C@@H]4CCCN4C(=O)[C@H](NC(=O)N4CCOCC4)c4ccccc4)cc3)cc2)[nH]1)c1ccccc1 [Compound 67] | < 1
23 | CC(C)(C)OC(=O)N[C@@H](C(=O)N1CCC[C@H]1CNC(=O)c1ccc(-c2ccc(-c3cnc([C@@H]4CCCN4C(=O)[C@H](NC(=O)OC(C)(C)C)c4ccccc4)[nH]3)cc2)cc1)c1ccccc1 [Compound 49] | < 1
24 | CC(C)(C)OC(=O)N1CCOCC1C(=O)Nc1ccc(-c2ccc(-c3cnc([C@@H]4COCCN4C(=O)OC(C)(C)C)[nH]3)cc2)cc1 (some centres unmarked) [Compound 4] | > 1000
25 | CC(C)(C)OC(=O)N[C@@H](C(=O)N1CCC[C@H]1C(=O)Nc1ccc(-c2ccc(-c3cnc([C@@H]4COCCN4C(=O)[C@H](NC(=O)OC(C)(C)C)c4ccccc4)[nH]3)cc2)cc1)c1ccccc1 [Compound 8] | < 1
26 | CN1CCN(C(=O)N[C@@H](C(=O)N2CCC[C@H]2COc2ccc(-c3ccc(-c4cnc([C@@H]5CCCN5C(=O)[C@H](NC(=O)N5CCN(C)CC5)c5ccccc5)[nH]4)cc3)cc2)c2ccccc2)CC1 [Compound 35] | 1 to 9.9
27 | C[C@@H](NC(=O)C1CC1)C(=O)N1CCC[C@H]1C(=O)Nc1ccc(-c2ccc(-c3cnc([C@@H]4CCCN4C(=O)[C@@H](C)NC(=O)C4CC4)[nH]3)cc2)cc1 [Compound 28] | 1 to 9.9
28 | CN1CCN(C(=O)N[C@@H](C(=O)N2CCC[C@H]2C(=O)NCc2ccc(-c3ccc(-c4cnc([C@@H]5CCCN5C(=O)[C@H](NC(=O)N5CCN(C)CC5)c5ccccc5)[nH]4)cc3)cc2)c2ccccc2)CC1 [Compound 45] | 1 to 9.9
29 | O=C(N[C@@H](C(=O)N1CCC[C@H]1c1ncc(-c2ccc(Oc3ccc(-c4cnc([C@@H]5CCCN5C(=O)[C@H](NC(=O)C5CC5)c5ccccc5)[nH]4)cc3)cc2)[nH]1)c1ccccc1)C1CC1 [Compound 54] | < 1
30 | COC(=O)N[C@@H](C(=O)N1CCC[C@H]1C(=O)Nc1ccc(-c2ccc(-c3cnc([C@@H]4CCCN4C(=O)[C@@H](c4ccccc4)N(C)C)[nH]3)cc2)cc1)c1ccccc1 [Compound 59] | < 1
31 | COC(=O)N[C@@H](C)C(=O)N1CCC[C@H]1CNC(=O)c1ccc(-c2ccc(-c3cnc([C@@H]4CCCN4C(=O)[C@H](C)NC(=O)OC)[nH]3)cc2)cc1 [Compound 98] | 1 to 9.9
32 | COC(=O)N[C@@H](C(=O)N[C@@H](C)c1ncc(-c2ccc(-c3ccc(C(=O)NC[C@@H]4CCCN4C(=O)[C@H](NC(=O)OC)c4ccccc4)cc3)cc2)[nH]1)c1ccccc1 [Compound 89] | < 1
33 | O=C(N[C@@H](C(=O)N1CCOC[C@H]1C(=O)Nc1ccc(-c2ccc(-c3cnc([C@@H]4CCCN4C(=O)[C@H](NC(=O)C4CC4)c4ccccc4)[nH]3)cc2)cc1)c1ccccc1)C1CC1 [Compound 3] | < 1
34 | COC(=O)N[C@H](C(=O)N1CCC[C@H]1CNC(=O)c1ccc(-c2ccc(-c3cnc([C@@H]4CCCN4C(=O)[C@@H](NC(=O)OC)C4CCOCC4)[nH]3)cc2)cc1)C1CCOCC1 [Compound 123] | 1 to 9.9
35 | COC(=O)N[C@H](C(=O)N1CCC[C@H]1c1ncc(-c2ccc(Oc3cccc(-c4cnc([C@@H]5CCCN5C(=O)[C@@H](NC(=O)OC)C(C)C)[nH]4)c3)cc2)[nH]1)C(C)C [Compound 70] | < 1
36 | CC(C)[C@@H](NC(=O)OC(C)(C)C)C(=O)N1CCOC[C@H]1C(=O)Nc1ccc(-c2ccc(-c3cnc([C@@H]4COCCN4C(=O)[C@H](NC(=O)OC(C)(C)C)C(C)C)[nH]3)cc2)cc1 [Compound 18] | 10 to 999
37 | COC(=O)N[C@H](C(=O)N1CCC[C@H]1C(=O)NCc1ccc(-c2ccc(-c3cnc([C@@H]4CCCN4C(=O)[C@@H](NC(=O)OC)C(C)C)[nH]3)cn2)cc1)C(C)C [Compound 116] | 10 to 999
38 | COC(=O)N[C@@H](C(=O)N1CCC[C@H]1c1ncc(-c2ccc(-c3ccc(C(=O)NC[C@@H]4CCCN4C(=O)[C@@H](c4ccccc4)N4CCCCC4)cc3)cc2)[nH]1)c1ccccc1 [Compound 64] | < 1
39 | COC(=O)N[C@H](C(=O)N1CCC[C@H]1C(=O)Nc1ccc(-c2ccc3c(ccc4nc([C@@H]5CCCN5C(=O)[C@@H](NC(=O)OC)C(C)C)[nH]c43)c2)cc1)C(C)C [Compound 114] | < 1
40 | CC(C)[C@@H](NC(=O)OC(C)(C)C)C(=O)N1CCC[C@H]1C(=O)Nc1ccc(-c2ccc(-c3cnc([C@@H]4COCCN4C(=O)[C@H](NC(=O)OC(C)(C)C)C(C)C)[nH]3)cc2)cc1 [Compound 10] | 10 to 999
41 | COC(=O)N[C@@H](C(=O)N1CCC[C@H]1C(=O)Nc1ccc(-c2ccc3nc([C@@H]4CCCN4C(=O)[C@H](NC(=O)OC)c4ccccc4)[nH]c3c2)cc1)c1ccccc1 [Compound 74] | < 1

From patent publication US20120040977A1, “INHIBITORS OF HCV NS5A” (PRESIDIO PHARMACEUTICALS, INC., priority 2009, published 2012)
